pIC50: −log10 of the molar value.
Experiments:
[1] = tested on: PBMC (CSF-2); test: Macrophage survival (CCK-8); type: cell-based; settings: Homo sapiens, 168 h, 7 days
Procedure: Murine bone marrow-derived macrophages (BMDMs) and PBMCs were used for cell viability studies. BMDMs were harvested by flushing the tibias and femurs of 6- to 8-week-old C57BL/6 mice and depleting red blood cells (RBCs) by RBC lysis (Biogems). For BMDM survival, the cells were cultured for 7 days in RPMI 1640 containing 10% fetal bovine serum (FBS), 100 U/mL penicillin, 100 μg/mL streptomycin and 100 ng/mL mouse CSF-1 (or CSF-2) with or without the tested compounds. PBMCs were obtained from HemaCare and cultured for 7 days in RPMI 1640 containing 10% fetal bovine serum (FBS), 100 U/mL penicillin, 100 μg/mL streptomycin and 100 ng/mL human CSF-1 (or CSF-2) with or without the tested compounds. Cell viability was measured using the CCK-8 assay. For IL-4/IL-13-induced macrophage survival analysis, viable cells were counted by trypan blue exclusion.

[2] = target: T1, BrSK2(h) (Homo sapiens, UniProt Q8IWQ3); test: Eurofins kinase panel; type: biochemical; settings: read-out: Inhibition rate (%)
T1 construct: purchased Eurofins (KinaseProfiler)
T1 sequence (Q8IWQ3 1-736): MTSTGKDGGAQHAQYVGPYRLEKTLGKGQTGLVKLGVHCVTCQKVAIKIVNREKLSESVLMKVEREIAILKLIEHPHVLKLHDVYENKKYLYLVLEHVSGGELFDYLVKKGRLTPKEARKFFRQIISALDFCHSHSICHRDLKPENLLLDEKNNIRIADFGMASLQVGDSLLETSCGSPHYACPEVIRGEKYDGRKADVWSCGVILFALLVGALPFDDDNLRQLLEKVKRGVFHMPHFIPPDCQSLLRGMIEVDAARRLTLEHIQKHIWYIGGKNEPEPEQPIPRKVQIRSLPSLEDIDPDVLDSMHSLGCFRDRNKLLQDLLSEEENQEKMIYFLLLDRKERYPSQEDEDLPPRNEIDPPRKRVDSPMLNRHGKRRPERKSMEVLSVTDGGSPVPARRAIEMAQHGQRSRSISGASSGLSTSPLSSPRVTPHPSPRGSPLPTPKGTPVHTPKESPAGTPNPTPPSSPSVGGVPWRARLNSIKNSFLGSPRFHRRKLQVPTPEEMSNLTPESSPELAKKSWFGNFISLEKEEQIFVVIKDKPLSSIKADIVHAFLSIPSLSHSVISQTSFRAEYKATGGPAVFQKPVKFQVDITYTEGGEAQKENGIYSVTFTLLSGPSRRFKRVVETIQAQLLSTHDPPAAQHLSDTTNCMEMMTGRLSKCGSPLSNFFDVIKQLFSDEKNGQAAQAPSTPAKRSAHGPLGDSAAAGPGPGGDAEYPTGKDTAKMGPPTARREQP

[3] = target: T2, MST3(h) (Homo sapiens, UniProt Q9Y6E0); test: Eurofins kinase panel; type: biochemical; settings: read-out: Inhibition rate (%)
T2 construct: purchased Eurofins (KinaseProfiler)

[4] = target: T3, Tie2(Y897S)(h) (Homo sapiens, UniProt Q02763, Y897S); test: Eurofins kinase panel; type: biochemical; settings: read-out: Inhibition rate (%)
T3 construct: purchased Eurofins (KinaseProfiler)
Procedure: Active FGFR1–4, VEGFR1, KDR, VEGFR3, PDGFRα and PDGFRβ proteins were purchased from Eurofins (Fremont, United States), and kinase activity was assessed using ELISA, as previously reported. […]. Increasing concentrations of ATP were diluted for the kinase reaction in the ATP competition assay. CSF-1R kinase activity was analyzed using the Z’-LYTE™ Kinase Assay Kit (Thermo Fisher, United States). The assay formats are described in the SelectScreen Kinase Profiling Service Zlyte protocol. IC50 values were calculated by dose-response curve fitting using Prism (Graph Pad).

[5] = target: T4, Pim-1(h) (Homo sapiens, UniProt P11309); test: Eurofins kinase panel; type: biochemical; settings: read-out: Inhibition rate (%)
T4 construct: purchased Eurofins (KinaseProfiler)
T4 sequence (P11309 whole entry): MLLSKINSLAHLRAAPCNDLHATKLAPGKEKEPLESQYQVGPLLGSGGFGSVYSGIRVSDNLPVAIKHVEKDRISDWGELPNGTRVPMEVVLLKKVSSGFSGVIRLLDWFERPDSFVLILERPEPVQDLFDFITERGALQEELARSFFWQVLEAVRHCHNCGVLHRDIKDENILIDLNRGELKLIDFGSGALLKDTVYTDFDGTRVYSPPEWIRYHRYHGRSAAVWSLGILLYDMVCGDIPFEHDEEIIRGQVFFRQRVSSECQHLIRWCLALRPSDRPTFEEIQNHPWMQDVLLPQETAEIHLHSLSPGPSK

[6] = target: T5, MST4(h) (Homo sapiens, UniProt Q9P289); test: Eurofins kinase panel; type: biochemical; settings: read-out: Inhibition rate (%)
T5 construct: purchased Eurofins (KinaseProfiler)
T5 sequence (Q9P289 whole entry): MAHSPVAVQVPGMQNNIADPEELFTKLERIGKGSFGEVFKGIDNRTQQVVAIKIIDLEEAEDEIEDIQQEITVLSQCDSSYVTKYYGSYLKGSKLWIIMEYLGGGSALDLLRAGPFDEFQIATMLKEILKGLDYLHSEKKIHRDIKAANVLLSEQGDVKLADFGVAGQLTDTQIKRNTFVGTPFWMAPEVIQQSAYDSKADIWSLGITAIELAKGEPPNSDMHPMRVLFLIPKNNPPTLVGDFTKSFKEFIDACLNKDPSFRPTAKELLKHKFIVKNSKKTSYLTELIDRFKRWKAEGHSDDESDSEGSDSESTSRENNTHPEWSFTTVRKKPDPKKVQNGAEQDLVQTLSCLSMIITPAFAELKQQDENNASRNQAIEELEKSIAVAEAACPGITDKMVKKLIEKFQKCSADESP

[7] = target: T6, SGK3(h) (Homo sapiens, UniProt Q96BR1); test: Eurofins kinase panel; type: biochemical; settings: read-out: Inhibition rate (%)
T6 construct: purchased Eurofins (KinaseProfiler)
T6 sequence (Q96BR1 1-496): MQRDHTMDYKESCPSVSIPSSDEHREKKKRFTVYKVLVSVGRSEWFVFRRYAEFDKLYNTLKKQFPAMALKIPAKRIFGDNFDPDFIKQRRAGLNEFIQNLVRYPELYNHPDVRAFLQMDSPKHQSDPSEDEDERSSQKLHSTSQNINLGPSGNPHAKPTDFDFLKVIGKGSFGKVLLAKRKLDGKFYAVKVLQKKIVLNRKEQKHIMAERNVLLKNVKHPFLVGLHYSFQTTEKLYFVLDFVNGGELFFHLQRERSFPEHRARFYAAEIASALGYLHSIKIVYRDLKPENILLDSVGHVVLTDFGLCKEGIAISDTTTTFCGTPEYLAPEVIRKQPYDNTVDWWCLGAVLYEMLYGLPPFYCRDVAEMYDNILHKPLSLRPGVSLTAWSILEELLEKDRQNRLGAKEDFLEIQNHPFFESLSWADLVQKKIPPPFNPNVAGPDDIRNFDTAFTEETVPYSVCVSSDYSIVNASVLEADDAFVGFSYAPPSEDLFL

[8] = target: T7, PASK(h) (Homo sapiens, UniProt Q96RG2); test: Eurofins kinase panel; type: biochemical; settings: read-out: Inhibition rate (%)
T7 construct: purchased Eurofins (KinaseProfiler)
T7 sequence (Q96RG2 whole entry): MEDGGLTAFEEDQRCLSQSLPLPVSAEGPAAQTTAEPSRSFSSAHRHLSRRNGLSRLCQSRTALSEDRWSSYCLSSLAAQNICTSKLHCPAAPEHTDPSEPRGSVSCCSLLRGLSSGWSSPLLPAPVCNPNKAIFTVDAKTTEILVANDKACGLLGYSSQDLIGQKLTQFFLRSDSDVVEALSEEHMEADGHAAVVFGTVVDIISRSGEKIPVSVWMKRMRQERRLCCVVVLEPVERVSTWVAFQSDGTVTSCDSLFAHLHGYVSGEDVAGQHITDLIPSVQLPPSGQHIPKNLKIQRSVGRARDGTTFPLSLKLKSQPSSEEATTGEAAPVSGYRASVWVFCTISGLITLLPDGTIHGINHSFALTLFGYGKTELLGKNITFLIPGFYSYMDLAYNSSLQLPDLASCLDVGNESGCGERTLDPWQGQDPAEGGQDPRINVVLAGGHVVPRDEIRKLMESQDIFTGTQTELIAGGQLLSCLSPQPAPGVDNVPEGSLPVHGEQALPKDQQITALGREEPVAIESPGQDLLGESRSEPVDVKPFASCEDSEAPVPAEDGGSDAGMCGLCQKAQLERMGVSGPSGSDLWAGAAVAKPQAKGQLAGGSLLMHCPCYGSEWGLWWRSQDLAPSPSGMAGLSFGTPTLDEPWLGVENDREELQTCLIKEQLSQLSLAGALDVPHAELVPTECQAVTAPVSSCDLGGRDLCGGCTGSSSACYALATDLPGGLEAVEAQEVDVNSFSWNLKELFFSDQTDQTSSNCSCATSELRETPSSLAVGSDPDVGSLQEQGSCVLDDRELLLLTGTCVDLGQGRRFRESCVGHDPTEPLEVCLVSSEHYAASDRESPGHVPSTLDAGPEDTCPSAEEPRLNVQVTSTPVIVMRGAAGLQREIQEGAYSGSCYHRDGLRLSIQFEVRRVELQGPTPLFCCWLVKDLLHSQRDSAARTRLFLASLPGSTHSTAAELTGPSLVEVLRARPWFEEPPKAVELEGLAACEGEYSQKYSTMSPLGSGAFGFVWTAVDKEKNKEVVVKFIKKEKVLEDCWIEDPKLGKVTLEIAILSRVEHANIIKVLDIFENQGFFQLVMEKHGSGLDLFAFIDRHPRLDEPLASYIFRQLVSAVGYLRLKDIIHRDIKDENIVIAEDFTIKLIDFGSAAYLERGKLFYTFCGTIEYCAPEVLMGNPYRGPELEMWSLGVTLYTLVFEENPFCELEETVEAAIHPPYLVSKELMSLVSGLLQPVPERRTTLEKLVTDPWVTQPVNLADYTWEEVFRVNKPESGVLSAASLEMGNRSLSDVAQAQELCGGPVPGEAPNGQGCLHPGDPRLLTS

[9] = target: T8, HIPK1(h) (Homo sapiens, UniProt Q86Z02); test: Eurofins kinase panel; type: biochemical; settings: read-out: Inhibition rate (%)
T8 construct: purchased Eurofins (KinaseProfiler)
T8 sequence (Q86Z02 whole entry): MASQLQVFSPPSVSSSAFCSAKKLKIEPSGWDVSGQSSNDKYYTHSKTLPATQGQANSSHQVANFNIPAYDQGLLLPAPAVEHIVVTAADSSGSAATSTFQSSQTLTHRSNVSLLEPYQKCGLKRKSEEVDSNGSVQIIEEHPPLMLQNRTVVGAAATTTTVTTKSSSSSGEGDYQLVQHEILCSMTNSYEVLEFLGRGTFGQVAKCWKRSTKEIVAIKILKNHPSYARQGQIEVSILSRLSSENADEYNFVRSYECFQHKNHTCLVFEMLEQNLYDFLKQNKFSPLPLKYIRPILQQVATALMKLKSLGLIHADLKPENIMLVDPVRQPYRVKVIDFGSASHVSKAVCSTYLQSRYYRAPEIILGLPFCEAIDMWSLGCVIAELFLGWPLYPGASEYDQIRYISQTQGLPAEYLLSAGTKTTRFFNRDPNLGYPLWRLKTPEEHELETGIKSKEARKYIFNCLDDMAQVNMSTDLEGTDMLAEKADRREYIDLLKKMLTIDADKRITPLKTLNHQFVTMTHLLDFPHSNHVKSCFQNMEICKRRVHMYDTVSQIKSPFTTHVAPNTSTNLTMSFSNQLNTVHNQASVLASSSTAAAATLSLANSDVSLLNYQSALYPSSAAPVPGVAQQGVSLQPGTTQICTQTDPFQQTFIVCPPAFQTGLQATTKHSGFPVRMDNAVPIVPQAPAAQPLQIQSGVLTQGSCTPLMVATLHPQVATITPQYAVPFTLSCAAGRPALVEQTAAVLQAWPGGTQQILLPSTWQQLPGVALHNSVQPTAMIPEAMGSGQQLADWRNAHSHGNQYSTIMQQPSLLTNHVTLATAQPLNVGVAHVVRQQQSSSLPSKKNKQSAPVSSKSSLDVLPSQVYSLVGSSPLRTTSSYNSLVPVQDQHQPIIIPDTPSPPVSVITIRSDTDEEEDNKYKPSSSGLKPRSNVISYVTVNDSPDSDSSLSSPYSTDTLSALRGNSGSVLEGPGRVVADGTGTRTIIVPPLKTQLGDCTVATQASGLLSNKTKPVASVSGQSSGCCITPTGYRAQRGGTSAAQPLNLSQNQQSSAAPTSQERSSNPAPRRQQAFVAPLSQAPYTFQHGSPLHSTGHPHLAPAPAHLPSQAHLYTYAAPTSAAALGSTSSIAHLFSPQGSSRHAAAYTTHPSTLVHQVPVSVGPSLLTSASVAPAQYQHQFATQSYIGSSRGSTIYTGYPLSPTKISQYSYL

[10] = target: T9, Abl(h) (Homo sapiens, UniProt P00519); test: Eurofins kinase panel; type: biochemical; settings: read-out: Inhibition rate (%)
T9 construct: purchased Eurofins (KinaseProfiler)
T9 sequence (P00519 whole entry): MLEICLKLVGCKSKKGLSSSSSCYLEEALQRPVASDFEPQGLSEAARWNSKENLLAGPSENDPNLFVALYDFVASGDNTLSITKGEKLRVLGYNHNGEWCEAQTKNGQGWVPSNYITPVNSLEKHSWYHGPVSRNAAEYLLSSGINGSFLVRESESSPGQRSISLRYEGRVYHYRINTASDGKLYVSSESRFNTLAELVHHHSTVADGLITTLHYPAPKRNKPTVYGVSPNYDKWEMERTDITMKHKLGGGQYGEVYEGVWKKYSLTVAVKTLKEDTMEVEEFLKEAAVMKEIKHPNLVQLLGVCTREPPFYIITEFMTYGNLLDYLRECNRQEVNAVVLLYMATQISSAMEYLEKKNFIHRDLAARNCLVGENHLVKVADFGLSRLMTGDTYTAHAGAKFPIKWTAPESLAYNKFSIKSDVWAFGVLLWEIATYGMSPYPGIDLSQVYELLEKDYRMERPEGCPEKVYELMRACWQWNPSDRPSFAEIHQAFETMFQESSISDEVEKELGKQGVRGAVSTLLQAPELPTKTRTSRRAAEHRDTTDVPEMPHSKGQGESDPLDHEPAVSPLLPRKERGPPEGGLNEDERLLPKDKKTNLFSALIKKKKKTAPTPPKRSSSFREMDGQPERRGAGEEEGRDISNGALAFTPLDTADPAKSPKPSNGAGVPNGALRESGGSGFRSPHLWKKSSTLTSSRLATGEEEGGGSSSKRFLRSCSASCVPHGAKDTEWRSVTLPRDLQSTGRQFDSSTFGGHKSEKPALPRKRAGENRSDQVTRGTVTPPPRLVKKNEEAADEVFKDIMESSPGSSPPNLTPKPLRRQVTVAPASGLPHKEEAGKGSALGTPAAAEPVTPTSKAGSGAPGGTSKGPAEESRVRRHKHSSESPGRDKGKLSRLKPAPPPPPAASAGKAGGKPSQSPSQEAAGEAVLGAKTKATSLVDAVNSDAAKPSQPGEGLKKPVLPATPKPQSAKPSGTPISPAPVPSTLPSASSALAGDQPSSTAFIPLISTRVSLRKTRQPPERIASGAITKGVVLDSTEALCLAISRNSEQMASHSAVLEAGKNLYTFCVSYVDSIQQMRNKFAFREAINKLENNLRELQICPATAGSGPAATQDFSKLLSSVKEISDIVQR

[11] = target: T10, STK25(h) (Homo sapiens, UniProt O00506); test: Eurofins kinase panel; type: biochemical; settings: read-out: Inhibition rate (%)
T10 construct: purchased Eurofins (KinaseProfiler)

[12] = target: T11, PKR(h) (Homo sapiens, UniProt P19525); test: Eurofins kinase panel; type: biochemical; settings: read-out: Inhibition rate (%)
T11 construct: purchased Eurofins (KinaseProfiler)
T11 sequence (P19525 whole entry): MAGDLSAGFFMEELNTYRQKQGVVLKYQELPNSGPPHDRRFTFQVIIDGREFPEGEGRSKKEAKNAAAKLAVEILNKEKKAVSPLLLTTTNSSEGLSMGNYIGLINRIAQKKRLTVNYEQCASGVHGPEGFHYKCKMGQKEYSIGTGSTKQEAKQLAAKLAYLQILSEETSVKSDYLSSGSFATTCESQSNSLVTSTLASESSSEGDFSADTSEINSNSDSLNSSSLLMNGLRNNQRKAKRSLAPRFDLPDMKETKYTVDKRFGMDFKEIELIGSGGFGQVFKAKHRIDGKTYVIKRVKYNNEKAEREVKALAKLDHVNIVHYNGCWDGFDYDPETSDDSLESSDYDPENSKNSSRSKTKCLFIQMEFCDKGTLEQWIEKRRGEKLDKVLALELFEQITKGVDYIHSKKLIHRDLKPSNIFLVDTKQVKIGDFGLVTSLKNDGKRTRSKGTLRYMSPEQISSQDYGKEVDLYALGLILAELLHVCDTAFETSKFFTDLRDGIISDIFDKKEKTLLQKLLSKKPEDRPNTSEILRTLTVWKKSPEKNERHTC

[13] = target: T12, cSRC(h) (Homo sapiens, UniProt P12931); test: Eurofins kinase panel; type: biochemical; settings: read-out: Inhibition rate (%)
T12 construct: purchased Eurofins (KinaseProfiler)

COc1cc(OC)c(Cl)c(-c2ccc3c(NC(=O)c4ccc(N5CCNC(C)(C)C5)cc4)n[nH]c3n2)c1Cl [3D185]
pIC50 [1]: < 6.00
inhibition at 0.01 µM ([2]; 10 nM): 8%
inhibition at 0.1 µM ([2]; 100 nM): 5%
inhibition at 1 µM ([2]; 1000 nM): 11%
inhibition at 0.01 µM ([3]; 10 nM): -2%
inhibition at 0.1 µM ([3]; 100 nM): 8%
inhibition at 1 µM ([3]; 1000 nM): 70%
inhibition at 0.01 µM ([4]; 10 nM): 14%
inhibition at 0.1 µM ([4]; 100 nM): 39%
inhibition at 1 µM ([4]; 1000 nM): 88%
inhibition at 0.01 µM ([5]; 10 nM): -5%
inhibition at 0.1 µM ([5]; 100 nM): 13%
inhibition at 1 µM ([5]; 1000 nM): 9%
inhibition at 0.01 µM ([6]; 10 nM): 6%
inhibition at 0.1 µM ([6]; 100 nM): 27%
inhibition at 1 µM ([6]; 1000 nM): 70%
inhibition at 0.01 µM ([7]; 10 nM): 3%
inhibition at 0.1 µM ([7]; 100 nM): 2%
inhibition at 1 µM ([7]; 1000 nM): 14%
inhibition at 0.01 µM ([8]; 10 nM): -15%
inhibition at 0.1 µM ([8]; 100 nM): 1%
inhibition at 1 µM ([8]; 1000 nM): 10%
inhibition at 0.01 µM ([9]; 10 nM): -3%
inhibition at 0.1 µM ([9]; 100 nM): 4%
inhibition at 1 µM ([9]; 1000 nM): 10%
inhibition at 0.01 µM ([10]; 10 nM): 3%
inhibition at 0.1 µM ([10]; 100 nM): 43%
inhibition at 1 µM ([10]; 1000 nM): 81%
inhibition at 0.01 µM ([11]; 10 nM): 7%
inhibition at 0.1 µM ([11]; 100 nM): 22%
inhibition at 1 µM ([11]; 1000 nM): 57%
inhibition at 0.01 µM ([12]; 10 nM): -4%
inhibition at 0.1 µM ([12]; 100 nM): -3%
inhibition at 1 µM ([12]; 1000 nM): 0%
inhibition at 0.01 µM ([13]; 10 nM): 26%
inhibition at 0.1 µM ([13]; 100 nM): 53%
inhibition at 1 µM ([13]; 1000 nM): 87%

From article PMC6704710, “Preclinical evaluation of 3D185, a novel potent inhibitor of FGFR1/2/3 and CSF-1R, in FGFR-dependent and macrophage-dominant cancer models” (Journal of Experimental & Clinical Cancer Research : CR, 2019)
